Values quoted from earlier work as cited in patent publication EP1694724B1, “pH SENSITIVE POLYMER AND PROCESS FOR PREPARATION THEREOF” (Council of Scientific and Industrial Research, priority 2003, dated 2005).

Conditions: humans

bioavailability: 32-50%
SMILES: CO/N=C(\C(=O)N[C@@H]1C(=O)N2C(C(=O)OC(C)OC(C)=O)=C(COC(N)=O)CS[C@H]12)c1ccco1 (stereo partly shown) [Cefuroxime axetil, cefuroxime axetil]
